The subject of the assay is T1, MaBGA (β-galactosidase from Marinomonas sp. BSi20414).
T1 construct: native enzyme purified from the wild-type strain (ammonium sulfate, HiTrap DEAE FF); GH42; catalytic Glu142 and Glu314; no tag
Description: release of o-nitrophenol at […] nm, nonlinear Michaelis-Menten fit. The assay is classed as biochemical. Particulars: apparent Km; 50 mM PBS pH 7.0 (standard assay); ONPG 0.1-19 mM; temperature not given.

As for `O=[N+]([O-])c1ccccc1O[C@@H]1O[C@H](CO)[C@H](O)[C@H](O)[C@H]1O` [ONPG, o-nitrophenyl-β-D-galactopyranoside], the Km (usually the concentration of substrate that gives half-maximal velocity) is 14.2 mM.
